The test deals with T1, Alpha-(1,6)-fucosyltransferase (Homo sapiens) (UniProt Q9BYC5).
T1 sequence (whole entry): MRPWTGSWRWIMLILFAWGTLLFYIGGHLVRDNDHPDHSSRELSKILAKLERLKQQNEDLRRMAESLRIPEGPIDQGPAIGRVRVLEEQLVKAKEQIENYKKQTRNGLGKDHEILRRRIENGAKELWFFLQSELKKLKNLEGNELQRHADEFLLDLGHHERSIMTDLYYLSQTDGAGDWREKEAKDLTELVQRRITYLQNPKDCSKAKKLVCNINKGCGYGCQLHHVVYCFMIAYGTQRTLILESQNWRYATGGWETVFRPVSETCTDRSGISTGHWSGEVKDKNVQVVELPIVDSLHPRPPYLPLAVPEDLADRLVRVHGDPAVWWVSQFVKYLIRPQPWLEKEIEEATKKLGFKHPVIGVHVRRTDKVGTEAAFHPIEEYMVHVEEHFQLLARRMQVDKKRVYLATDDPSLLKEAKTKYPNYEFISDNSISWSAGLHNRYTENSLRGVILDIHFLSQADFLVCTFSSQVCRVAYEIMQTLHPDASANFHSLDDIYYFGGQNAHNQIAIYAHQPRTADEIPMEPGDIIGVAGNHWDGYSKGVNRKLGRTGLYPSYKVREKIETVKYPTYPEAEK
Briefly: Inhibition of FUT8 in human […] cells at 100 uM using (S)-2-(((9H-fluoren-9-yl)methoxy)carbonylamino)-4-((2R,3R,4R,5S,6R)-3-acetamido-5-((2S,3R,4R,5S,6R)-3-acetamido-5-((2S,3S,4S,5R,6R)-4-((2R,3S,4S,5S,6R)-3-((2S,3R,4R,5S,6R)-3-acetamido-4,5-dihydroxy-6-(hydroxymethyl)tetrahydro-2H-pyran-2-yloxy)-4,5-dihydroxy-6-(hydroxymethyl)tetrahydro-2H-pyran-2-yloxy)-6-(((2S,3S,4S,5S,6R)-3-((2S,3R,4R,5S,6R)-3-acetamido-4,5-dihydroxy-6-(hydroxymethyl)tetrahydro-2H-pyran-2-yloxy)-4,5-dihydroxy-6-(hydroxymethyl)tetrahydro-2H-pyran-2-yloxy)methyl)-3,5-dihydroxytetrahydro-2H-pyran-2-yloxy)-4-hydroxy-6-(hydroxymethyl)tetrahydro-2H-pyran-2-yloxy)-4-hydroxy-6-(hydroxymethyl)tetrahydro-2H-pyran-2-ylamino)-4-oxobutanoic acid as substrate after 24 hrs in presence of GDP-fucose by HPLC method relative to control. The format is cell-based.
With `CCCN/C(CCO[C@H]1O[C@@H](C)[C@@H](O)[C@@H](O)[C@@H]1O)=N\S(=O)(=O)CCCCCn1cnc2c(=O)[nH]c(N)nc21`, the inhibition amounted to 41%. In the case of `C[C@@H]1O[C@H](OCCC(=O)NS(=O)(=O)CCCCCn2cnc3c(=O)[nH]c(N)nc32)[C@@H](O)[C@H](O)[C@@H]1O`, the inhibition was 31%. In the case of `CO/C(CCO[C@H]1O[C@@H](C)[C@@H](O)[C@@H](O)[C@@H]1O)=N\S(=O)(=O)CCCCCn1cnc2c(=O)[nH]c(N)nc21`, the inhibition came out at 57%. Regarding `CCN(CC)/C(CCO[C@H]1O[C@@H](C)[C@@H](O)[C@@H](O)[C@@H]1O)=N\S(=O)(=O)CCCCCn1cnc2c(=O)[nH]c(N)nc21`, the inhibition came to 39%.

Take `C[C@@H]1O[C@H](OCc2cn(S(=O)(=O)CCCCCn3cnc4c(=O)[nH]c(N)nc43)nn2)[C@@H](O)[C@H](O)[C@@H]1O`: the inhibition was 45%.

`CCCS/C(CCO[C@H]1O[C@@H](C)[C@@H](O)[C@@H](O)[C@@H]1O)=N\S(=O)(=O)CCCCCn1cnc2c(=O)[nH]c(N)nc21`: the inhibition was 14%.

The record behind these values is ChEMBL document CHEMBL4020702, “Development of α1,6-fucosyltransferase inhibitors through the diversity-oriented syntheses of GDP-fucose mimics using the coupling between alkyne and sulfonyl azide” (Bioorg Med Chem, 2017).
